ChEMBL document CHEMBL1201862, “PubChem BioAssay data set” (2004)
Calls of active or inactive are those of the source.

Tests used:
[1] = biological target: T1, RNA-binding protein pos-1 (Caenorhabditis elegans, UniProt G5EF15); experiment: disruptors of C. elegans POS-1 RNA interaction – biochemical, fluorescence polarization, dose response (AID 1964);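 note: purified POS-1 fused to maltose binding protein made in E. coli; potency of compounds blocking POS-1 binding to fluorescent RNA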
T1 sequence (G5EF15 whole entry): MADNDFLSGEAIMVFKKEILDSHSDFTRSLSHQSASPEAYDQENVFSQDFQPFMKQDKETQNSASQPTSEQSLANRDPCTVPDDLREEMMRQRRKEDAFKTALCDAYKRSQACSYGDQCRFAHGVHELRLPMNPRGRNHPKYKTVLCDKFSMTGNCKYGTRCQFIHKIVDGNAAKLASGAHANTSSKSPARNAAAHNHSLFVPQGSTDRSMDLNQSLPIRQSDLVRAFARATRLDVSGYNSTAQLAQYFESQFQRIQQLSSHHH

[2] = biological target: T2, Zinc finger protein mex-5 (Caenorhabditis elegans, UniProt Q9XUB2); experiment: potency of MEX-5 RNA-binding blockers – biochemical, C. elegans, fluorescence polarization, dose response (AID 1960)
T2 sequence (Q9XUB2 whole entry): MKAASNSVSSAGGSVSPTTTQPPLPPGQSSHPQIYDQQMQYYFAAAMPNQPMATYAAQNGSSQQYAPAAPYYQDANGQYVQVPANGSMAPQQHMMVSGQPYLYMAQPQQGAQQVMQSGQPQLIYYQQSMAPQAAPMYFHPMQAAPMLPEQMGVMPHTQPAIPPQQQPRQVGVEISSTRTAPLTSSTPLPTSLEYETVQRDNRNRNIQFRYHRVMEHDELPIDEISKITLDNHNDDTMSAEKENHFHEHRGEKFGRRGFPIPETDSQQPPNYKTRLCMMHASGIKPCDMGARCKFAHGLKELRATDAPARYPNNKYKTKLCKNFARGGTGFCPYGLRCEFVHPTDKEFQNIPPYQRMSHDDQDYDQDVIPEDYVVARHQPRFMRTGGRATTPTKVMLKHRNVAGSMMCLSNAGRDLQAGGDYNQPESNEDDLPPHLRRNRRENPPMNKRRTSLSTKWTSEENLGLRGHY

[3] = system: Streptococcus sp. 'group A'; experiment: Streptococcus pyogenes SK(-)GAS viability under kanamycin – luminescence, BacTiterGlo, confirmation, counter-screen for streptokinase expression inhibitor project, dose response (AID 1900); format: functional, organism-based
Streptokinase A = biological target: T3, Streptokinase A (Streptococcus pyogenes serotype M1, UniProt P10520); experiment: viability-normalized secreted streptokinase activity reduction – plasminogen activation absorbance, OD405, dose response (AID 1914); format: functional, Streptococcus pyogenes M1 GAS;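 note: secreted streptokinase activity via plasminogen activation per viability signal from cell pellet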
T3 sequence (P10520 whole entry): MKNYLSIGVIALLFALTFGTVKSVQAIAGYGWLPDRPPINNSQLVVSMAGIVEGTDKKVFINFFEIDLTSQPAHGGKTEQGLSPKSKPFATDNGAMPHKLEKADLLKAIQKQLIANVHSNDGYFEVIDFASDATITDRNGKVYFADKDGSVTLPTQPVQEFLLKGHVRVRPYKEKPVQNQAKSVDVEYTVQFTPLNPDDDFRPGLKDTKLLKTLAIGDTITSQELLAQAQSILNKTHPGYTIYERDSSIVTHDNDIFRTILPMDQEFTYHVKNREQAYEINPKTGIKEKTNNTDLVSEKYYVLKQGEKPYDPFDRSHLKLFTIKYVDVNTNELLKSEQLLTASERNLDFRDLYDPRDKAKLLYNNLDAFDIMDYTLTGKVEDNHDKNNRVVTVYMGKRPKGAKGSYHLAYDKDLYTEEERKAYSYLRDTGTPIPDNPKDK

Streptococcus = experiment: GAS UMAA2166 growth inhibition – luminescence, BacTiterGlo, counter-screen for streptokinase expression inhibitor project, dose response (AID 1915); format: functional, organism-based;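 note: potency for reduction of bacterial viability or growth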
[4] = Luminescence Cell-Based Dose Confirmation HTS to Identify Inhibitors of Platelet Dense Granule Release. [Related pubchem assays: 1663 (Primary HTS), 1678 (Summary of Project)]; format: functional
[5] = biological target: Luciferin 4-monooxygenase (Photinus pyralis, UniProt P08659); experiment: inhibition of purified Photinus pyralis luciferase – biochemical, luminescence, dose response (AID 1891)
Chain of Luciferin 4-monooxygenase (P08659 whole entry): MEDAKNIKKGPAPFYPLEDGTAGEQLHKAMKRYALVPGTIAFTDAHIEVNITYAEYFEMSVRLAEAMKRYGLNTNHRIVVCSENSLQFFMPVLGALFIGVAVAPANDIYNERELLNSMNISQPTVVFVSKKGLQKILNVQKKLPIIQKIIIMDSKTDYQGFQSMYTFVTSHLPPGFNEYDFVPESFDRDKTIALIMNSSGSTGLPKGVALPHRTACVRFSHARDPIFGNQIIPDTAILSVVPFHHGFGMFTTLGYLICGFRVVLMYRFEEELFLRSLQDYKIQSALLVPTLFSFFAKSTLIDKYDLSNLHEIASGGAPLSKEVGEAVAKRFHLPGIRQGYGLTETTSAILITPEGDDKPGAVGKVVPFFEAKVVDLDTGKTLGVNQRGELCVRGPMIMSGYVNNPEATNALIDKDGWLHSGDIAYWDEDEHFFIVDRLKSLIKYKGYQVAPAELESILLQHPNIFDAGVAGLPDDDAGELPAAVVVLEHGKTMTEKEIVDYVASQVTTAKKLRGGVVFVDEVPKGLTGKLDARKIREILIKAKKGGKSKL

Cytochrome P450 2C9 = Cytochrome P450 2C9 (Homo sapiens, UniProt P11712)
Chain of Cytochrome P450 2C9 (P11712 whole entry): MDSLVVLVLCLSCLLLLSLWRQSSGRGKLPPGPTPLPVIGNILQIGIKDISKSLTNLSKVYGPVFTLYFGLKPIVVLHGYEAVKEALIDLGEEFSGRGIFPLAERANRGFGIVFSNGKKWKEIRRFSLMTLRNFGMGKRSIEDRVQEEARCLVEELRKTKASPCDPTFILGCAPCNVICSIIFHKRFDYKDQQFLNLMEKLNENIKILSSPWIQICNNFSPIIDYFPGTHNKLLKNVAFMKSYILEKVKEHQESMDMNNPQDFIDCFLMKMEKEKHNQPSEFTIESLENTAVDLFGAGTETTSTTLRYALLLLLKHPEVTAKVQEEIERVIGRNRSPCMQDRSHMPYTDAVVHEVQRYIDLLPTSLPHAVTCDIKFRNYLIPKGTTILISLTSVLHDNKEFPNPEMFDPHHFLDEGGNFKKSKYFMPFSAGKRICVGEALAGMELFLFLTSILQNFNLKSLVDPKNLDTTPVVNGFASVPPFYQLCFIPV

[6] = luciferase reporter signal suppression in cells – H4 neuroglioma cells, luminescence, dose response (AID 1990); format: functional, cell-based
[7] = Luminescence Cell-Based Dose Response HTS to Identify Inhibitors of 5'UTR Stem-Loop Driven Prion Protein mRNA Translation in H4 Neuroglioblastoma Cells. [Related pubchem assays: 1827 (Project Summary), 1813 (Primary HTS)]; format: functional
[8] = alpha-synuclein stem-loop luciferase translation blockers – H4 neuroglioma cells, luminescence, confirmation (AID 1988); format: functional, cell-based
INS1 = experiment: INS-1E survival protection against cytokine death – cell-based, luminescence, retest, dose response (AID 449756); format: functional; conditions: Rattus norvegicus;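 note: cell death triggered by IL-1 beta plus TNF-alpha plus IFN-gamma mixture; protective hits raise ATP signal compared with cytokine alone wells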
Cytochrome P450 1A2 = biological target: T4, Cytochrome P450 1A2 (Homo sapiens, UniProt P05177);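 note: PubChem cytochrome P450 panel assay, CYP1A2 panel member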
T4 sequence (P05177 whole entry): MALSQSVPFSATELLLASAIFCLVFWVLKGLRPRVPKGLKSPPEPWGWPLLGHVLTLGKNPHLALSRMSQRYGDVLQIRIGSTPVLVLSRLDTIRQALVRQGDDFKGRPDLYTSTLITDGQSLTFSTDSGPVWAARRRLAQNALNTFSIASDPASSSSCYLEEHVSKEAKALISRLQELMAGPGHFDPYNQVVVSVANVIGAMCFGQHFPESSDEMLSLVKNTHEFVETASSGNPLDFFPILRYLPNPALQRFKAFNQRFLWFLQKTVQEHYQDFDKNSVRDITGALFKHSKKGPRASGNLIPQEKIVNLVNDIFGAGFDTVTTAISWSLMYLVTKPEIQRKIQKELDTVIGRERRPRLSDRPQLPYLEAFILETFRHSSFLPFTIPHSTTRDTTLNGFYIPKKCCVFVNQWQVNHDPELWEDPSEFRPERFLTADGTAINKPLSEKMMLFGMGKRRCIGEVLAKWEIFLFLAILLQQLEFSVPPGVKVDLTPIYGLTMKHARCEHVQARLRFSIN

Cytochrome P450 2D6 = Cytochrome P450 2D6 (Homo sapiens, UniProt P10635);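 note: CYP2D6 member of a cytochrome P450 panel assay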
Chain of Cytochrome P450 2D6 (P10635 whole entry): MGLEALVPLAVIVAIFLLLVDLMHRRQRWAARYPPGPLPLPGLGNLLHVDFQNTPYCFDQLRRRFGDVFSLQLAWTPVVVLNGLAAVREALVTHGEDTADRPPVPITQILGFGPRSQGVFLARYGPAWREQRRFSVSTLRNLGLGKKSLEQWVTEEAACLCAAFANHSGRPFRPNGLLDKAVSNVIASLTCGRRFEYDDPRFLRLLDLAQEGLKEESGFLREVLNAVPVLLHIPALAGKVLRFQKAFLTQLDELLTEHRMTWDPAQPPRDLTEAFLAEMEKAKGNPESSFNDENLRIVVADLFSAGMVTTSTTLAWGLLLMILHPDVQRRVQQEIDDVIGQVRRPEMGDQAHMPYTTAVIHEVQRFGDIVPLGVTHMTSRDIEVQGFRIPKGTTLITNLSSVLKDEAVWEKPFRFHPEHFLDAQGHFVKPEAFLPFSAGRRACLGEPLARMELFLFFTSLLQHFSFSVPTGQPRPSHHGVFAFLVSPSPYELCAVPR

Cytochrome P450 2C19 = Cytochrome P450 2C19 (Homo sapiens, UniProt P33261); experiment: Cytochrome panel assay with activity outcomes. Panel member name: p450-cyp2c19 Compounds with AC50 equal or less than 10 uM are considered active; format: functional; conditions: read-out: AC50
Chain of Cytochrome P450 2C19 (P33261 whole entry): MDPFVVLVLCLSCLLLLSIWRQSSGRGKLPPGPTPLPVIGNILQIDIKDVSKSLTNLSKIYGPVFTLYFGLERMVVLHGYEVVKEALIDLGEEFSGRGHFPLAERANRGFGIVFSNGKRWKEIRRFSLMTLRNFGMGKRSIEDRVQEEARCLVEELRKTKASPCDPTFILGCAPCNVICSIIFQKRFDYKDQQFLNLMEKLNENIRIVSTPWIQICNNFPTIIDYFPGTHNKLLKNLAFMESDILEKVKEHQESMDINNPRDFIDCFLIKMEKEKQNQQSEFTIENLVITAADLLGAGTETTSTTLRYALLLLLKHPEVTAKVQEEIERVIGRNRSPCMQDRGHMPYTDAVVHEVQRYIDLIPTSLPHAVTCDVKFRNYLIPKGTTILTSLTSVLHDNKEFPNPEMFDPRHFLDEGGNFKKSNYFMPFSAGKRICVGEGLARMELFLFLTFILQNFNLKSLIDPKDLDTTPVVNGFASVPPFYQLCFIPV

Cc1cc(/C=C2\C(=O)NC(=O)N(c3ccc(Cl)cc3)C2=O)c(C)n1C
EC50 [1]: 63.5 µM (active)

Cc1ccc(C(=O)C2=C(O)C(=O)N(Cc3ccco3)C2c2ccc(N(C)C)cc2)o1 (stereo not drawn)
EC50 [1]: > 300 µM (not active)
EC50 [2]: > 300 µM (not active)

CC(Oc1ccc(F)cc1)C(=O)Nc1ccccc1N1CCCCC1 (stereo not drawn)
EC50 [3]: 11.8 µM (active)
EC50 (Streptokinase A): 10.3 µM (active)
EC50 (Streptococcus): 19.9 µM (active)
EC50 [4]: 21 µM (active)
EC50 [5]: 27.3 µM (active)

COc1cc(CNCc2cccs2)cc(Br)c1OC
AC50 (Cytochrome P450 2C9): 1.41 µM (inconclusive)

O=c1c(CCc2ccccc2)nc2cnc(Nc3ccccc3)nc2n1C[C@H]1CCCO1
AC50 (Cytochrome P450 2C9): 20 µM (inconclusive)

COC(=O)c1cc(NC(=O)c2c(Cl)nc3sccn23)cc(C(=O)OC)c1
EC50 [6]: 12.3 µM (active)
EC50 [7]: 10.6 µM (active)
EC50 [8]: 9.13 µM (active)

CCCCCN1C=CC=C/C1=C\C=C(C#N)C#N
EC50 [1]: 30.3 µM (inconclusive)
EC50 [2]: > 300 µM (not active)

Cc1n[nH]c(NNC(=O)c2ccccc2)c1[N+](=O)[O-]
EC50 [1]: 15.2 µM (active)
EC50 [2]: 4.96 µM (active)

CCOC(=O)C1=C(CNCc2ccc(F)cc2)NC(=O)NC1c1cccc([N+](=O)[O-])c1 (stereo not drawn)
EC50 [4]: > 112 µM (not active)
EC50 [5]: > 112 µM (not active)

N#Cc1ccc(C(=O)Nc2nc(-c3cccs3)c(C(=O)C(F)(F)F)s2)cc1
AC50 (INS1): 4.75 µM (active)

O=c1oc(Nc2ccc(F)cc2)nc2ccccc12
EC50 [4]: 4.03 µM (active)
EC50 [5]: 8.06 µM (active)

CC1CN(c2nc3ccccc3nc2C(C#N)C(=O)NC2CCCCC2)CC(C)O1 (stereo not drawn)
EC50 [1]: > 300 µM (not active)
EC50 [2]: > 300 µM (inconclusive)

COc1cc(OC)c(C2C(C#N)=C(N)OC3=C2C(=O)CC(C)(C)C3)cc1OC (stereo not drawn)
EC50 [1]: > 300 µM (not active)
EC50 [2]: > 300 µM (not active)

O=C(Cn1cc(C(=O)C(F)(F)F)c2ccccc21)NCc1ccco1
EC50 [4]: > 112 µM (not active)
EC50 [5]: > 112 µM (not active)

O=c1cnc2cncnc2n1Cc1ccccc1Cl
AC50 (Cytochrome P450 1A2): 15.8 µM (inconclusive)
AC50 (Cytochrome P450 2C9): 20 µM (inconclusive)
AC50 (Cytochrome P450 2D6): 20 µM (inconclusive)

COc1ccc(NC(=O)c2sc3nc(-c4cccnc4)ccc3c2N)cc1
EC50 [1]: 40.6 µM (inconclusive)
EC50 [2]: 4.79 µM (active)

COC(=O)C1CSc2[nH]c(=O)sc2C1c1ccccc1 (stereo not drawn)
EC50 [1]: 7.13 µM (active)
EC50 [2]: 7.46 µM (active)

COc1cccc(C(=O)NCC2CCN(c3ccc(S(=O)(=O)N4CCOCC4)cc3)CC2)c1
EC50 [1]: > 300 µM (not active)
EC50 [2]: > 300 µM (not active)

C/C=C(/C)C(=O)Nc1cccc(C2=NOC3(C2)C[C@H](C(N)=O)N(C(=O)COc2ccc(Cl)cc2)C3)c1 (stereo partly drawn)
EC50 [6]: > 120 µM (not active)
EC50 [7]: 87.6 µM (active)
EC50 [8]: > 120 µM (not active)

O=C(Nc1cccc(-c2nc3ccccc3o2)c1)c1ccc(N2C(=O)C3C4C=CC(C4)C3C2=O)cc1 (stereo not drawn)
EC50 [6]: 10.5 µM (active)
EC50 [7]: > 120 µM (not active)
EC50 [8]: 9.98 µM (active)

C=CCNc1nc(N)c([N+](=O)[O-])c(NC2CCCCC2)n1
EC50 [6]: 28.9 µM (active)
EC50 [7]: 0.21 µM (active)
EC50 [8]: > 120 µM (not active)

O=c1cnc2cnc(Oc3cccc(Cl)c3)nc2n1C[C@H]1CCCO1
AC50 (Cytochrome P450 2C19): 39.8 µM (inconclusive)
AC50 (Cytochrome P450 2C9): 15.8 µM (inconclusive)

COc1cccc(-c2cncnc2NCCc2c[nH]c3ccc(OC)cc23)c1
AC50 (Cytochrome P450 2C9): 0.1 µM (inconclusive)

c1ccc(C(c2ccccc2)N2CC[C@@]3(CCCNC3)C2)cc1
AC50 (Cytochrome P450 2C9): 31.6 µM (inconclusive)

O=C(CN1C(=O)c2cccc3cccc1c23)N1CCN(c2ccc(F)cc2)CC1
EC50 [4]: > 112 µM (not active)
EC50 [5]: > 112 µM (not active)

Cc1c(C(=O)N2CCCCC2)c(S(=O)(=O)N(C)Cc2ccccc2)c(C)n1C
EC50 [4]: > 112 µM (not active)
EC50 [5]: > 112 µM (not active)

COc1ccc2[nH]cc(CCNc3nc(-c4ccc(C(=O)N(C)C)cc4)nc4ccccc34)c2c1
AC50 (Cytochrome P450 2C9): 1 µM (inconclusive)
AC50 (Cytochrome P450 2D6): 20 µM (inconclusive)

CC(Sc1nnc(C(C)N(C)C)n1-c1ccc(Cl)cc1)C(=O)Nc1ccc2c(c1)OCO2 (stereo not drawn)
AC50 (Cytochrome P450 2C9): 15.8 µM (inconclusive)

CN(C)CCCN/C=C1\C(=O)NC(=O)N(CCc2ccc(F)cc2)C1=O
EC50 [1]: > 300 µM (not active)
EC50 [2]: > 300 µM (not active)

COCCNC(=O)CSc1ncnc2sccc12
AC50 (Cytochrome P450 2C9): 28.2 µM (inconclusive)

CCn1c(=O)c([N+](=O)[O-])c(NCCc2ccc(OC)c(OC)c2)c2ccccc21
EC50 [4]: > 112 µM (not active)
EC50 [5]: > 112 µM (not active)

CCCCc1ccc(Nc2nc(N3CCOCC3)nc(N3CCOCC3)n2)cc1
EC50 [4]: > 112 µM (not active)
EC50 [5]: > 112 µM (not active)

Cc1cc(C)n(C(=O)CCCCCCCCC(=O)n2nc(C)cc2C)n1
AC50 (Cytochrome P450 1A2): 15.8 µM (inconclusive)
AC50 (Cytochrome P450 2C9): 0.251 µM (inconclusive)

COc1cccc(-c2nc(C[S+]([O-])CC(=O)NCCc3ccc(C)cc3)c(C)o2)c1 (stereo not drawn)
EC50 [4]: > 112 µM (not active)
EC50 [5]: > 112 µM (not active)

COc1ccc(N2CCN(S(=O)(=O)c3c(C)nc4sccn4c3=O)CC2)cc1
EC50 [4]: > 112 µM (not active)
EC50 [5]: > 112 µM (not active)

O=C1CC(=O)C(n2cncn2)C(c2cccc(Cl)c2)C1 (stereo not drawn)
AC50 (Cytochrome P450 2C19): 3.98 µM (inconclusive)
AC50 (Cytochrome P450 2C9): 25.1 µM (inconclusive)

O=C(NCCCN1CCOCC1)C(=O)N/N=C/c1c2ccccc2cc2ccccc12
EC50 [6]: 12.2 µM (active)
EC50 [7]: 13.9 µM (active)
EC50 [8]: 9.11 µM (active)

COc1cccc(/C=N/Nc2nnc(C)n2N)c1OCc1ccccc1Cl
EC50 [6]: > 120 µM (not active)
EC50 [7]: > 120 µM (not active)
EC50 [8]: > 120 µM (not active)

Cc1ccc(C(=O)N/N=C/c2ccc(-c3cccc(C(F)(F)F)c3)o2)cn1
EC50 [6]: > 120 µM (not active)
EC50 [7]: > 120 µM (not active)
EC50 [8]: 11.9 µM (active)

COc1cccc(C(=O)Nc2ccc(-c3nnc(-c4ccco4)o3)cc2)c1
AC50 (Cytochrome P450 2C19): 2.82 µM (inconclusive)
AC50 (Cytochrome P450 2C9): 1.41 µM (inconclusive)
